From the supplement of paper PMC5908809

Assays:
[1] = test system: normal NK cells expanded with K562-aAPC; test: percent inhibition of viability; higher = more inhibition; conditions: 72 h, IL-2 2.5 ng/mL
Experimental: (§1)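 Drug sensitivity and resistance testing on K562-aAPC-expanded normal NK cells: 5 concentrations (10-fold steps over a 10,000-fold range), 72 h at 37 °C, viability by CellTiter-Glo normalised to DMSO and benzethonium chloride controls; DSS from the fitted curve.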

[2] = test system: normal NK cells expanded with K562-aAPC; test: drug sensitivity score (DSS) (DSS units); higher = more sensitive; extreme values may be limits of the assay; conditions: 72 h; IL-2 2.5 ng/mL
Experimental: as §1

[3] = test system: normal primary NK cells, pool 1 (3 donors), resting (IL-2 0 ng/mL); test: as above; conditions: 72 h
NK-92 (IL-2 2.5 ng/mL) [4] = test: as above; conditions: 72 h
[5] = test system: normal primary NK cells, pool 1 (3 donors) (IL-2 2.5 ng/mL); test: as above; conditions: 72 h
NKL (IL-2 2.5 ng/mL) [6] = test: as above; conditions: 72 h
[7] = test system: normal primary NK cells, pool 3 (3 donors) (IL-2 2.5 ng/mL); test: as above; conditions: 72 h
[8] = test system: normal primary NK cells, pool 2 (3 donors) (IL-2 2.5 ng/mL); test: as above; conditions: 72 h
KHYG-1 (IL-2 2.5 ng/mL) [9] = test: as above; conditions: 72 h
IMC-1 (IL-2 20 ng/mL) [10] = test: as above; conditions: 72 h
NK-YS (IL-2 2.5 ng/mL) [11] = test: as above; conditions: 72 h
DERL-7 (IL-2 2.5 ng/mL) [12] = test: as above; conditions: 72 h
KAI3 (IL-2 2.5 ng/mL) [13] = test: as above; conditions: 72 h
SNK-6 (IL-2 2.5 ng/mL) [14] = test: as above; conditions: 72 h
YT (IL-2 2.5 ng/mL) [15] = test: as above; conditions: 72 h
[16] = test system: normal primary NK cells, pool 1 (3 donors), resting (IL-2 0 ng/mL); test: percent inhibition of viability; higher = more inhibition; conditions: 72 h
NK-92 (IL-2 2.5 ng/mL) [17] = test: as above; conditions: 72 h
[18] = test system: normal primary NK cells, pool 1 (3 donors) (IL-2 2.5 ng/mL); test: as above; conditions: 72 h
NKL (IL-2 2.5 ng/mL) [19] = test: as above; conditions: 72 h
[20] = test system: normal primary NK cells, pool 3 (3 donors) (IL-2 2.5 ng/mL); test: as above; conditions: 72 h
[21] = test system: normal primary NK cells, pool 2 (3 donors) (IL-2 2.5 ng/mL); test: as above; conditions: 72 h
KHYG-1 (IL-2 2.5 ng/mL) [22] = test: as above; conditions: 72 h
IMC-1 (IL-2 20 ng/mL) [23] = test: as above; conditions: 72 h
NK-YS (IL-2 2.5 ng/mL) [24] = test: as above; conditions: 72 h
DERL-7 (IL-2 2.5 ng/mL) [25] = test: as above; conditions: 72 h
KAI3 (IL-2 2.5 ng/mL) [26] = test: as above; conditions: 72 h
SNK-6 (IL-2 2.5 ng/mL) [27] = test: as above; conditions: 72 h
YT (IL-2 2.5 ng/mL) [28] = test: as above; conditions: 72 h

Structure (SMILES): CCC1=C[C@@H]2CN(C1)Cc1c([nH]c3ccccc13)[C@@](C(=O)OC)(c1cc3c(cc1OC)N(C)[C@H]1[C@@](O)(C(=O)OC)[C@H](OC(C)=O)[C@]4(CC)C=CCN5CC[C@]31[C@@H]54)C2 [Vinorelbine] (max concentration tested 10000 nM)
- percent inhibition of viability ([1]; 1 nM): 1.8%
- percent inhibition of viability ([1]; 10 nM): 11.8%
- percent inhibition of viability ([1]; 100 nM): 57.4%
- percent inhibition of viability ([1]; 1000 nM): 59.7%
- percent inhibition of viability ([1]; 10000 nM): 79%
- drug sensitivity score [2]: 20.7
- drug sensitivity score [3]: 7.49
- drug sensitivity score (NK-92 (IL-2 2.5 ng/mL) [4]): 31.6
- drug sensitivity score [5]: 2.8
- drug sensitivity score (NKL (IL-2 2.5 ng/mL) [6]): 39.5
- drug sensitivity score [7]: 4.42
- drug sensitivity score [8]: 3.94
- drug sensitivity score (KHYG-1 (IL-2 2.5 ng/mL) [9]): 37.3
- drug sensitivity score (IMC-1 (IL-2 20 ng/mL) [10]): 42.8
- drug sensitivity score (NK-YS (IL-2 2.5 ng/mL) [11]): 33.5
- drug sensitivity score (DERL-7 (IL-2 2.5 ng/mL) [12]): 40.4
- drug sensitivity score (KAI3 (IL-2 2.5 ng/mL) [13]): 27.1
- drug sensitivity score (SNK-6 (IL-2 2.5 ng/mL) [14]): 40.6
- drug sensitivity score (YT (IL-2 2.5 ng/mL) [15]): 38.2
- percent inhibition of viability ([16]; 1 nM): -1.44%
- percent inhibition of viability ([16]; 10 nM): -3.84%
- percent inhibition of viability ([16]; 100 nM): -0.59%
- percent inhibition of viability ([16]; 1000 nM): 21.5%
- percent inhibition of viability ([16]; 10000 nM): 76.9%
- percent inhibition of viability (NK-92 (IL-2 2.5 ng/mL) [17]; 1 nM): -12.5%
- percent inhibition of viability (NK-92 (IL-2 2.5 ng/mL) [17]; 10 nM): 23.4%
- percent inhibition of viability (NK-92 (IL-2 2.5 ng/mL) [17]; 100 nM): 88.8%
- percent inhibition of viability (NK-92 (IL-2 2.5 ng/mL) [17]; 1000 nM): 98.5%
- percent inhibition of viability (NK-92 (IL-2 2.5 ng/mL) [17]; 10000 nM): 102%
- percent inhibition of viability ([18]; 1 nM): -4.33%
- percent inhibition of viability ([18]; 10 nM): -2.37%
- percent inhibition of viability ([18]; 100 nM): -0.15%
- percent inhibition of viability ([18]; 1000 nM): 4.78%
- percent inhibition of viability ([18]; 10000 nM): 40.3%
- percent inhibition of viability (NKL (IL-2 2.5 ng/mL) [19]; 1 nM): 3.63%
- percent inhibition of viability (NKL (IL-2 2.5 ng/mL) [19]; 10 nM): 84.8%
- percent inhibition of viability (NKL (IL-2 2.5 ng/mL) [19]; 100 nM): 93.6%
- percent inhibition of viability (NKL (IL-2 2.5 ng/mL) [19]; 1000 nM): 93.9%
- percent inhibition of viability (NKL (IL-2 2.5 ng/mL) [19]; 10000 nM): 93.2%
- percent inhibition of viability ([20]; 1 nM): -16.2%
- percent inhibition of viability ([20]; 10 nM): -7.94%
- percent inhibition of viability ([20]; 100 nM): 14.5%
- percent inhibition of viability ([20]; 1000 nM): 19.8%
- percent inhibition of viability ([20]; 10000 nM): 32.1%
- percent inhibition of viability ([21]; 1 nM): -13.5%
- percent inhibition of viability ([21]; 10 nM): 0.55%
- percent inhibition of viability ([21]; 100 nM): 18.7%
- percent inhibition of viability ([21]; 1000 nM): 12.3%
- percent inhibition of viability ([21]; 10000 nM): 39.7%
- percent inhibition of viability (KHYG-1 (IL-2 2.5 ng/mL) [22]; 1 nM): 2.76%
- percent inhibition of viability (KHYG-1 (IL-2 2.5 ng/mL) [22]; 10 nM): 57.8%
- percent inhibition of viability (KHYG-1 (IL-2 2.5 ng/mL) [22]; 100 nM): 97.2%
- percent inhibition of viability (KHYG-1 (IL-2 2.5 ng/mL) [22]; 1000 nM): 103%
- percent inhibition of viability (KHYG-1 (IL-2 2.5 ng/mL) [22]; 10000 nM): 105%
- percent inhibition of viability (IMC-1 (IL-2 20 ng/mL) [23]; 1 nM): -0.83%
- percent inhibition of viability (IMC-1 (IL-2 20 ng/mL) [23]; 10 nM): 99.3%
- percent inhibition of viability (IMC-1 (IL-2 20 ng/mL) [23]; 100 nM): 99.7%
- percent inhibition of viability (IMC-1 (IL-2 20 ng/mL) [23]; 1000 nM): 100%
- percent inhibition of viability (IMC-1 (IL-2 20 ng/mL) [23]; 10000 nM): 101%
- percent inhibition of viability (NK-YS (IL-2 2.5 ng/mL) [24]; 1 nM): 10.7%
- percent inhibition of viability (NK-YS (IL-2 2.5 ng/mL) [24]; 10 nM): 66.4%
- percent inhibition of viability (NK-YS (IL-2 2.5 ng/mL) [24]; 100 nM): 64.9%
- percent inhibition of viability (NK-YS (IL-2 2.5 ng/mL) [24]; 1000 nM): 84.2%
- percent inhibition of viability (NK-YS (IL-2 2.5 ng/mL) [24]; 10000 nM): 90%
- percent inhibition of viability (DERL-7 (IL-2 2.5 ng/mL) [25]; 1 nM): -3.93%
- percent inhibition of viability (DERL-7 (IL-2 2.5 ng/mL) [25]; 10 nM): 85.2%
- percent inhibition of viability (DERL-7 (IL-2 2.5 ng/mL) [25]; 100 nM): 98.5%
- percent inhibition of viability (DERL-7 (IL-2 2.5 ng/mL) [25]; 1000 nM): 98.5%
- percent inhibition of viability (DERL-7 (IL-2 2.5 ng/mL) [25]; 10000 nM): 100%
- percent inhibition of viability (KAI3 (IL-2 2.5 ng/mL) [26]; 1 nM): -0.08%
- percent inhibition of viability (KAI3 (IL-2 2.5 ng/mL) [26]; 10 nM): 44.9%
- percent inhibition of viability (KAI3 (IL-2 2.5 ng/mL) [26]; 100 nM): 58.9%
- percent inhibition of viability (KAI3 (IL-2 2.5 ng/mL) [26]; 1000 nM): 70.4%
- percent inhibition of viability (KAI3 (IL-2 2.5 ng/mL) [26]; 10000 nM): 70.2%
- percent inhibition of viability (SNK-6 (IL-2 2.5 ng/mL) [27]; 1 nM): 22.5%
- percent inhibition of viability (SNK-6 (IL-2 2.5 ng/mL) [27]; 10 nM): 78.3%
- percent inhibition of viability (SNK-6 (IL-2 2.5 ng/mL) [27]; 100 nM): 84.4%
- percent inhibition of viability (SNK-6 (IL-2 2.5 ng/mL) [27]; 1000 nM): 96.7%
- percent inhibition of viability (SNK-6 (IL-2 2.5 ng/mL) [27]; 10000 nM): 96.5%
- percent inhibition of viability (YT (IL-2 2.5 ng/mL) [28]; 1 nM): 0.44%
- percent inhibition of viability (YT (IL-2 2.5 ng/mL) [28]; 10 nM): 65.8%
- percent inhibition of viability (YT (IL-2 2.5 ng/mL) [28]; 100 nM): 95.2%
- percent inhibition of viability (YT (IL-2 2.5 ng/mL) [28]; 1000 nM): 98.7%
- percent inhibition of viability (YT (IL-2 2.5 ng/mL) [28]; 10000 nM): 100%
